Reference: a melting point compilation (Tetko et al.; mined from patent text by program, amines drawn as free bases though some values may be those of a salt)

| Structure (SMILES) | melting point [°C] |
| --- | --- |
| CCC(C)Nc1nc2ncnn2c2c1cnc1c2cnn1CC (centres undefined) | 228 to 230 |
| CC(CC(C(C)C(C)(C)O)N(C)C)C1CCC2C(O)CCCC12C (centres undefined) | 180 to 181 |
| O=C(C1CCc2nc[nH]c2C1)N1CCc2ccccc2C1 (centres undefined) | 128 to 130 |
| CC(C)(C)OC(=O)NC1CCCCC1NC(=O)c1ccccn1 (centres undefined) | 78 to 79 |
| O=c1[nH]c2ccc3c(c2o1)OC(CNCc1ccccc1)CO3 (centres undefined) | 220 |
| O=C(COCc1csc(-c2ccc(F)cc2)n1)c1ccccc1 | 104 to 106 |
| CCOC(=O)c1cc2cc(C3=C(c4cnc5[nH]cc(C(=O)C(C)(C)C)c5n4)CCC3)ccc2[nH]1 | 278 to 280 |
| O=C(CNC(=O)[C@@H]1CCCN1)Nc1ccc([N+](=O)[O-])cc1C(=O)c1ccccc1 | 165 to 167 |
| COc1nc(NC(=O)NS(=O)(=O)CC(C)Cl)nc(OC)n1 (centres undefined) | 139 to 141 |
| COC(=O)c1cccc(SCc2c(O[C@H](Cn3ccnc3)c3ccccc3)ccc3c2CCCC3=O)c1 | 65 |
| CC(=O)NCn1cc(-c2nc(Nc3ccccn3)sc2C)cn1 | 175 |
| O=C(CCl)Nc1ccc2c(c1)CC(=O)N2 | 166 to 170 |
| Oc1ccc2c(c1)C(c1ccc(OCCN3CCCCC3)cc1)c1c-2ccc2ccccc12 (centres undefined) | 180 to 181 |
| CC(C)(C)c1ccc(C(=O)Nc2cn3nc(NCCc4ccncc4)ccc3n2)cc1 | 279 |
| CC1=NN=C(C=Cc2ccc(C(F)(F)F)cc2)c2cc3c(cc2C1)OCO3 | 188 to 191 |
| COc1ccc2c(c1)OCC(c1ccc(F)cc1)C2c1ccc(O)cc1 (centres undefined) | 164 to 165 |
| CCN(CC)CCOc1ccc(Nc2ncc3c(n2)N(C)C(=O)N(C(C)(C)C)C3)cc1 | 130 |
| NS(=O)(=O)c1cc2sc(C=O)cc2s1 | 203 to 204 |
| COC(CC[C@](C)(O)[C@@H](/C=C\C=C\c1ccccc1)Sc1ccccc1)OC (racemic) | 59.5 to 61 |
| N#CC1=C(Nc2ccc(F)c(F)c2)CCC1 | 126 to 128 |
| COCCNC(=O)Cc1c(-c2ccc(C)cc2)nc2[nH]c3ccccc3n12 | 189 to 190 |
| COC(=O)CCCOc1ccc(CC(C)NCC(O)c2cc3ccccc3o2)cc1 (centres undefined) | 63 to 70 |
| Cc1ccc(S(=O)(=O)NCCc2cccc(OCC(=O)Nc3nnn[nH]3)c2)cc1 | 199 to 201 |

| Structure (SMILES) | melting point [°C] |
| --- | --- |
| Cc1cc(C)cc(OCCCC(=O)O)c1 | 66 to 68.5 |
| CS(=O)(=O)Nc1cc(NC(=O)CCl)c([N+](=O)[O-])cc1Oc1ccccc1 | 194 to 195 |
| CC(C)(C)C(=O)C(=Cc1ccc(Cl)cc1)n1cncn1 | 82 |
| Cc1ccc(N2CCN([C@@H](Cc3ccc(OCCc4nc(-c5ccccc5)oc4C)c(Br)c3)C(=O)O)CC2)cc1 | 203 to 205 |
| CCCCCCCOCCCCCCNCc1c(CO)ccc(O)c1CO | 72 to 74 |
| O=C(N[C@H](Cc1ccccc1)C(=O)O)OCc1cc2cc(-c3ccccc3)ccc2o1 | 154 to 156 |
| O=C(O)C(=O)c1ccc(OCCOc2ccc(C(F)(F)F)cc2)cc1 | 121 to 123 |
| CCc1c(C2=NN=C(C)Cc3cc4[nH]c(=O)oc4cc32)sc2cccc(F)c12 | 297 to 299 |
| Nc1cccc(Cc2n[nH]c(=O)c3ccccc23)c1 | 175 to 177 |
| C#CCN1CCCc2cccc(CSc3nc4ccccc4[nH]3)c21 | 122 |
| O=C(CCc1nc2ccccc2s1)Nc1cc(N2CC(c3ccccc3)OC2=O)ccn1 (centres undefined) | 229 to 230 |
| O=C(CCc1ccc(NC2=NCCN2)cc1)c1ccc(N2CCOCC2)cc1 | 196 to 198 |
| O=C(Nc1cc(Cl)c(O)c(Cl)c1)c1ccccc1O | 217 to 219 |
| O=C(O)/C=C/c1ccc(-c2nc3c(=O)n(CC4CC4)c(=O)n(CC4CC4)c3[nH]2)cc1 | > 250 |
| COc1cc(Nc2nccc(-c3cccc(NCCCO)c3)n2)cc(OC)c1OC | 92 to 95 |
| CCCCOC(=O)C(NC(=O)OCC(Cl)(Cl)Cl)n1cnc2ncncc21 (centres undefined) | 114 to 116 |
| COc1cc2c(c3c1OC(C)(C)C3)C(c1ccn(Cc3ccc(C(=O)Nc4ccncc4)cc3)c(=O)c1)=NC(C)(C)C2 | 144 to 146 |
| Fc1cccc(F)c1C1=NC(c2ccc(I)cc2)CO1 (centres undefined) | 105 to 106 |
| CCCCCCCCCCCCNC(=O)N1c2ccccc2C(C)CC1(C)C (centres undefined) | 48 to 50 |
| C=CCN1CCc2cc(OC)c(O)c3c2C1Cc1cc(OC)c(OC)cc1-3 (single isomer, unassigned; (+)) | 85 to 93 |
| O=C(O)c1cn(-c2ccc(F)cc2)c2c(F)c(N3Cc4cccc(F)c4C3)c(F)cc2c1=O | > 300 |
| CC(=O)OC1OC(CF)C(OC(C)=O)C1OC(C)=O (centres undefined) | 98 to 101 |
| Cc1cc(C)c(Nc2nc(C)ncc2S(=O)(=O)c2ccc(N3CCOCC3)cc2)c(C)c1 | 221 to 223 |

| Structure (SMILES) | melting point [°C] |
| --- | --- |
| CNC1CCN(c2c(F)cc3c(=O)c(C(=O)O)cn(C4CC4)c3c2C)CC1C (centres undefined) | 233 to 235 |
| N#Cc1ccc2c(c1)C1OC1C1(CCCCC1)O2 (centres undefined) | 222 to 225 |
| CCN(CC)c1ccc(/C=C/c2cc(/C=C/c3ccc4cc[nH]c4c3)[nH]n2)c(OCCN2CCOCC2)c1 | 96 to 99 |
| COc1ccc(C(O)C=Cc2ccc(N(C)C)cc2)cc1 (centres undefined) | 137 to 148 |
| CC(C)c1nc(C(C)C)c(CSc2c(F)c(F)cc(F)c2F)c(-c2ccc(F)cc2)c1CO | 109 to 110 |
| CCOC(=O)c1nccn1C1Cc2c(cccc2-c2ccccc2)C1=O (centres undefined) | 185 |
| NS(=O)(=O)CS(=O)(=O)c1ccc(S(=O)(=O)CCCO)cc1 | 200 |
| CN(c1ccc(C(=O)O)cc1)c1cc2c3c(c1)CCCC3(C)CCC2 | 257 to 258 |
| COc1ccc(C(=O)NCc2cccc3c2C(=O)N(C2CCC(=O)NC2=O)C3=O)cc1 (centres undefined) | 193 to 195 |
| CC(C)(O)c1cccc(-c2ccc3nc(-c4ccc(Cl)cc4)c(Cl)n3c2)c1 | 172 to 173 |
| CCOCc1nc2c(N)nc3cc(N4CCCCS4(=O)=O)ccc3c2n1CCCOC(C)C | 172 to 174 |
| CC(C)(C)c1cc(CN(C=O)n2ccnc2)cc(C(C)(C)C)c1O | 167 |
| O=C(O)c1cc(Cl)cc2c1OCCO2 | 180 |
| CCCN(CC(=O)Nc1c(SC)nc(C)nc1N(CC)CC)c1ccccc1 | 173 to 175 |
| COC(=O)c1scc(Cl)c1O | 78 |
| N#Cc1c2n(c3ccccc13)CCNCC2 | 161 to 164 |
| COc1ccc(C(OCC2OC(n3cnc4c(N)nc(F)nc43)CC2O)(c2ccccc2)c2ccc(OC)cc2)cc1 (centres undefined) | 239 to 243 |
| O=c1[nH]c2cc([N+](=O)[O-])cnc2n1-c1ccccc1F | 234 to 236 |
| Cc1cc(Oc2ncc(C(F)(F)F)cc2Cl)nn1C(=O)Nc1cccc(Cl)c1 | 129 to 130 |
| CCCCCCc1c(Br)c(-c2ccccc2)n(-c2ccc(C)cc2)c1-c1ccccc1 | 86 to 89 |
| Cc1ccc(-c2c3cc(C)ccc3nc3ccc(C)cc23)cc1 | 210 to 211 |
| COc1ccc(C(=CC(=O)N2CCOCC2)c2ccc(Oc3nc(Cl)nc(Cl)n3)cc2)cc1OC | 90 to 100 |
| COc1c(C(=S)NCCNC2CCCCCC2)cc(C)c2ccccc12 | 140 to 141 |
